Results from patent US4471117A, “3,4-Dihydro-2H-pyrimido(2,1-b)benzothiazoles” (Janssen Pharmaceutica N.V., priority 1980, dated 1984).
Where a name gives a salt, the structure may show the parent alone. Read-outs that look alike come from different tables or passages of the source.

What was measured:
[1] = target: T1, monoamine oxidase (type B, β-phenylethylamine substrate) (Rattus norvegicus, UniProt P19643); assay: In-vitro monoamine oxidase inhibition, [14C]phenylethylamine hydrochloride as substrate; format: biochemical; details: rat brain monoamine oxidase extract, 37° C., 20 minutes, pH 7.4, read-out: I.C.50 -value using as substrate [14C]phenylethylamine.HCl
T1 sequence (P19643 1-520): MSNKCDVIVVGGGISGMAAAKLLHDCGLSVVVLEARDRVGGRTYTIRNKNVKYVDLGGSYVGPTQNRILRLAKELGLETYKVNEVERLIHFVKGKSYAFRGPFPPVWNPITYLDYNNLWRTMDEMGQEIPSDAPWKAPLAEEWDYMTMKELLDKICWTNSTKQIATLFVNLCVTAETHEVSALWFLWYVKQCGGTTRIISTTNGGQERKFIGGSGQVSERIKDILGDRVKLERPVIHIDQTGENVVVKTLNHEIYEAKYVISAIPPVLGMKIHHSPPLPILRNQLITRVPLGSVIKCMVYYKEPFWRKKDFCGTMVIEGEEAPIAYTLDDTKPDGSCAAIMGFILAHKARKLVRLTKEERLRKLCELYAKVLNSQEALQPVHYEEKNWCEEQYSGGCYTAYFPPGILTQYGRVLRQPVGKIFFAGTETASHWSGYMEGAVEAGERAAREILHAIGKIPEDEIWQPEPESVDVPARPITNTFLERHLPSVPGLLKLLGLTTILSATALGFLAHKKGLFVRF

[2] = target: T2, monoamine oxidase (type A, tryptamine substrate) (Rattus norvegicus, UniProt P21396); assay: In-vitro monoamine oxidase inhibition, [14C]tryptamine as substrate; format: biochemical; details: rat brain monoamine oxidase extract, 37° C., 20 minutes, pH 7.4, read-out: I.C.50 -value using as substrate [14C]tryptamine
T2 sequence (P21396 1-526): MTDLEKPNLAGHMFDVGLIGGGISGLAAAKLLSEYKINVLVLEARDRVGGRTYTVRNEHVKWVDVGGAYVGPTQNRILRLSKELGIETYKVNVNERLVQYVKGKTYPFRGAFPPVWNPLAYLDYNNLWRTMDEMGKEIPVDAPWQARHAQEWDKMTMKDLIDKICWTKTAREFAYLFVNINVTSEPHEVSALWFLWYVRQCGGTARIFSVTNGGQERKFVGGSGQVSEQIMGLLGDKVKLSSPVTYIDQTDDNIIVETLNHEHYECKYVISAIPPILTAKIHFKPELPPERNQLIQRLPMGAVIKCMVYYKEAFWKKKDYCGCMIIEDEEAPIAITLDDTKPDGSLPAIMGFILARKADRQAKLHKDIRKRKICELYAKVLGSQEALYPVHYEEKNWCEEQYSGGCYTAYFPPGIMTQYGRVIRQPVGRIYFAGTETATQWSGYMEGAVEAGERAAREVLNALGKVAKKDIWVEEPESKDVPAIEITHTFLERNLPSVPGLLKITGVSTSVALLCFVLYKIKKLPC

| Compound | IC50 ([1]; Table 1) [nM] | IC50 ([2]; Table 1) [nM] | IC50 ([1]; Table 2) [nM] | IC50 ([2]; Table 2) [nM] |
| --- | --- | --- | --- | --- |
| CCNc1cccc2c1SC1=NCCCN12 [9-NHC2 H5, N-ethyl-3,4-dihydro-2H-pyrimido[2,1-b]benzothiazol-9-amine] | 100000 | 3 | – | – |
| COc1cc(CNc2ccc3c(c2)SC2=NCCCN23)cc(OC)c1OC [8-NHCH2 [3,4,5-(OCH3)3C6 H2]] | 34 | 20000 | – | – |
| Cc1ccc(C(C)(C)C)c2c1N1CCCN=C1S2 [6-CH3,9-C(CH3)3] | > 100000 | 65 | – | – |
| COc1ccc(CNc2ccc3c(c2)N2CCCN=C2S3)cc1 [7-NHCH2 (4-OCH3C6 H4)] | 65 | 250 | – | – |
| CCOC(=O)C(=CNc1ccc2c(c1)SC1=NCCCN12)C(=O)OCC [8-NHCHC(COOEt)2] | 160 | 20000 | – | – |
| C=CC[N+]1=C2Sc3ccc(CCCCCCCCC)cc3N2CCC1 | – | – | 380 | 250 |
| O=C(c1ccccc1)c1ccc2c(c1)N1CCCN=C1S2 [7-COC6 H5] | 2500 | 120 | – | – |
| CCC(CC)Nc1ccc2c(c1)N1CCCN=C1S2 [7-NHCH(C2 H5)2, N-(1-ethylpropyl)-3,4-dihydro-2H-pyrimido[2,1-b]benzothiazol-7-amine] | 305 | 3.4 | – | – |
| CC[N+]1=C2Sc3ccc(NC(C)C)cc3N2CCC1 | – | – | 45000 | 11 |

Results, then the compound that gave them:

| IC50 ([1]; Table 1) [nM] | IC50 ([2]; Table 1) [nM] | IC50 ([1]; Table 2) [nM] | IC50 ([2]; Table 2) [nM] | Compound |
| --- | --- | --- | --- | --- |
| 260 | 32 | – | – | CCCCc1ccc2c(c1)SC1=NCCCN12 [8-C4 H9] |
| 120 | 5 | – | – | c1cc2c(cc1NC1CCCC1)N1CCCN=C1S2 [7-NHc.C5 H9] |
| 90000 | 350 | – | – | Nc1cccc2c1SC1=NCCCN12 [Example 9-NH2, 3,4-dihydro-2H-pyrimido[2,1-b]benzothiazol-9-amine dihydrochloride] |
| 9000 | 30 | – | – | c1ccc2cc3c(cc2c1)SC1=NCCCN13 [7,8-(CHCHCHCH)] |
| 1200 | 20 | – | – | CCCc1ccc2c(c1)N1CCCN=C1S2 [7-C3 H7] |
| 20000 | 90 | – | – | CC(C)Nc1ccc2c(c1)SC1=NCCCN12 [8-NHi.C3 H7] |
| 20 | 1000 | – | – | Cc1ccc(CNc2ccc3c(c2)SC2=NCCCN23)cc1 [8-NHCH2 (4-CH3C6 H4)] |
| 50 | 8.5 | – | – | c1cc2c(cc1C1CCCCC1)SC1=NCCCN12 [8-c.C6 H11] |
| 12000 | 850 | – | – | NC(=O)Nc1ccc2c(c1)N1CCCN=C1S2 [Example 7-NHCONH2, N-(3,4-dihydro-2H-pyrimido[2,1-b]benzothiazol-7-yl)urea] |
